Assay results published in ChEMBL document CHEMBL3301458, “MMV Malaria Box hERG screening”.
Calls of active or inactive are those of the source. No rule for the calls is given here.

Tests used:
[1] = target: T1, hERG (Kv11.1, KCNH2) (Homo sapiens, UniProt Q12809); assay: in vitro
Description: MMV: Malaria Box compounds were tested for inhibition of the human ether a go-go related gene (hERG), Kv11.1 channel, using IonWorks 384-well patch clamp electrophysiology at 1.1uM (3 independent assay plates up to 12 cells per concentration).

[2] = target: T1, hERG (Kv11.1, KCNH2); assay: in vitro; remark: listed apart in the source
Description: MMV: Malaria Box compounds were tested for inhibition of the human ether a go-go related gene (hERG), Kv11.1 channel, using IonWorks 384-well patch clamp electrophysiology at 11.1uM (3 independent assay plates up to 12 cells per concentration).

T1 sequence (Q12809 whole entry): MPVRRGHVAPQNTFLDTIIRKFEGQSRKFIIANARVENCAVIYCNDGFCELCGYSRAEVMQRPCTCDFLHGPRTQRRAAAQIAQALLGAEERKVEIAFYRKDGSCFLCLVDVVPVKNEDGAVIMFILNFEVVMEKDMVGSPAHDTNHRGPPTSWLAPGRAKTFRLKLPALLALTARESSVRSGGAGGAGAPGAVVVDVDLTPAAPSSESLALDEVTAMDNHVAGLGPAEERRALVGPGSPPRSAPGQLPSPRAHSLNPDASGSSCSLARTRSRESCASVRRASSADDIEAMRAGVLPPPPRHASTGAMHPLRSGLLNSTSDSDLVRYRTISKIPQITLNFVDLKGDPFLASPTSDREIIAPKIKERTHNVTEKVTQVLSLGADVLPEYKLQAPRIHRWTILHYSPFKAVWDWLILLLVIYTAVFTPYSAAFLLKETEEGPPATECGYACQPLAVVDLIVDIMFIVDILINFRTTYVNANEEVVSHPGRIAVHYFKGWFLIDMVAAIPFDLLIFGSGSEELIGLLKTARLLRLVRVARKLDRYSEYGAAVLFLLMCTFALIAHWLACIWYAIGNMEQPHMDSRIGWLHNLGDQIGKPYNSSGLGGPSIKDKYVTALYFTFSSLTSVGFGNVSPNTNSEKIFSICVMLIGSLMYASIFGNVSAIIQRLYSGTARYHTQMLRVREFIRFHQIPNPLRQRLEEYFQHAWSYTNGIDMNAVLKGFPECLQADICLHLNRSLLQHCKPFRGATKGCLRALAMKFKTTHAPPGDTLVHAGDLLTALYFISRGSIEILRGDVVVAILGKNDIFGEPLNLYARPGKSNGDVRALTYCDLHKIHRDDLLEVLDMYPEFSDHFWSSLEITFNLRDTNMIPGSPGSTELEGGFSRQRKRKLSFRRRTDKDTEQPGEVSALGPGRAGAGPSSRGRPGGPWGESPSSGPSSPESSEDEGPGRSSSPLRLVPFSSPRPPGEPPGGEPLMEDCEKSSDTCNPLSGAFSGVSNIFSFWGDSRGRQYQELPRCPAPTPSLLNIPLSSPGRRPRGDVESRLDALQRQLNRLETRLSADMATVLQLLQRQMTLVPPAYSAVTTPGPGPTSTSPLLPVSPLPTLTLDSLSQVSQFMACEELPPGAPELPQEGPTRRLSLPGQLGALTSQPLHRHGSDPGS

Row | SMILES | inhibition at 1.1 µM [1] [%] | inhibition at 11.1 µM [2]
1 | CCN(CC)CCn1c(=N)n(CC(O)c2ccc(Cl)c(Cl)c2)c2ccccc21 (stereo not drawn) | 36 | 86% (active)
2 | CC(Oc1ccc(NC(=O)c2cccs2)cc1)C(=O)c1ccc(Cl)cc1 (stereo not drawn) | -4 | 55% (active)
3 | CCOC(=O)c1cnc2ccc(OC)cc2c1Nc1ccc(N2CCN(C)CC2)cc1 | 15 | 15% (inactive)
4 | Cc1ccc(S(=O)(=O)c2c(COC(=O)c3cccc(C)c3)c(-c3ccccc3)nn2C)cc1 | 4 | 12% (inactive)
5 | O=C(Nc1ccc(Br)cc1)Nc1cccc(Cl)c1 | -5 | 11% (inactive)
6 | CC(NCc1ccccc1)c1cc(Cl)ccc1O (stereo not drawn) | -4 | 35%
7 | Cc1ccc(-c2cc3c(SCC(=O)Nc4cc(C(F)(F)F)ccc4Cl)nccn3n2)cc1 | 2 | 29%
8 | CCOc1cc2c(cc1OCC)C(c1cc(C)c(O)c(C)c1)NCC2 (stereo not drawn) | 13 | 36%
9 | Cc1cc(=O)oc2c1ccc1oc(C(=O)c3ccccc3)c(C)c12 | -6 | 6% (inactive)
10 | CCOC(=O)C1=C(C)N=c2sc(=Cc3ccccc3O)c(=O)n2C1c1ccc(OC)c2ccccc12 (stereo not drawn) | 13 | 2% (inactive)
11 | CN1c2ccccc2N(C)C1c1ccc2c(c1)OCO2 | -1 | 17% (inactive)
12 | CCOc1ccc2nc(C)cc(Nc3ccc(N(C)C)cc3)c2c1 | 4 | 3% (inactive)
13 | CCN1CCN(Cc2ccc(NC(=O)c3cc4ccc5cccnc5c4[nH]3)cc2)CC1 | 41 | 106% (active)
14 | COc1ccc(-c2nc3cc(Cc4ccc5[nH]c(-c6ccc(OC)cc6)nc5c4)ccc3[nH]2)cc1 | -7 | -1% (inactive)
15 | O=C(NCc1ccco1)C1CCN(S(=O)(=O)c2ccc(Br)cc2)CC1 | 21 | 34%
16 | CN(C)c1ccc(N2C(N)=NC(N)=NC2(C)C)cc1 | 10 | 11% (inactive)
17 | Nc1nc(Nc2cccc(F)c2)nc2ccccc12 | 11 | 59% (active)
18 | Oc1ccc(Br)cc1CN1CCN(Cc2cccc(F)c2)CC1 | -1 | 18% (inactive)
19 | CN(C)CCCNCc1ccc(-c2ccc(F)c(Cl)c2)o1 | 3 | 48%
20 | O=C(Nc1cccc(-c2nc3ccccc3[nH]2)c1)c1cccc(NC(=O)c2ccco2)c1 | -6 | 6% (inactive)
21 | Oc1ccccc1CN1CCN(C(c2ccccc2)c2ccccc2)CC1 | 13 | 12% (inactive)
22 | O=C1c2ccc3c4c(ccc(c24)C(=O)N1CCCCO)C(=O)N(CCCCO)C3=O | 3 | 37%
23 | Cc1ccc(CN2CCC(C(=O)Nc3ccc(-c4cc5ccccc5[nH]4)cc3)CC2)o1 | 9 | 88% (active)
24 | CCc1ccc(Nc2cc(C)nc3nc(C)nn23)cc1 | -2 | 42%
25 | Clc1cc(Br)ccc1-c1ccc(CNCC2CCNCC2)o1 | 16 | 83% (active)

Row | SMILES | inhibition at 1.1 µM [1] [%] | inhibition at 11.1 µM [2]
26 | Fc1ccc2[nH]c3c(NCCCN4CCOCC4)ncnc3c2c1 | 24 | 77% (active)
27 | COc1cccc(-c2nn(C)c3sc(C(=O)NCCN4CCN(c5ccccc5F)CC4)cc23)c1 | 21 | 91% (active)
28 | CCCc1cc(O)c2c3c(c(=O)oc2c1)CN(C)CC3 | 46 | 94% (active)
29 | COc1ccccc1CNC(=O)CCn1c(=O)[nH]c2ccccc2c1=O | -6 | 19% (inactive)
30 | OCCNc1nc(Nc2ccc(Cl)c(Cl)c2)nc2ccccc12 | 4 | 30%
31 | COc1ccc(N2CCN(C(CNC(=O)CC(C)(C)C)c3ccc4c(c3)OCO4)CC2)cc1 (stereo not drawn) | -5 | 24% (inactive)
32 | FC(F)(F)c1ccc(Nc2nnnc3ccccc23)cc1 | -4 | -2% (inactive)
33 | Cc1cccc(Nc2nc(N)c3ccccc3n2)c1 | 15 | 49%
34 | CC(C)=CCN1CCC(C(=O)Nc2ccc(-c3nc4ccccc4[nH]3)cc2)CC1 | 0 | 29%
35 | CCOc1ccc2nc(C)cc(Nc3ccc(Br)cc3)c2c1 | 3 | 16% (inactive)
36 | CCOc1cc2c(cc1OCC)C(c1cc(OC)c(O)cc1Cl)NCC2 (stereo not drawn) | 10 | 30%
37 | Cc1cc(N2CCN(C3CCCC3)CC2)n2c(nc3ccccc32)c1C#N | -3 | 45%
38 | O=C(CSc1ccc2nnc(-c3cccc(F)c3)n2n1)Nc1ccc2c(c1)OCO2 | 5 | 3% (inactive)
39 | CCC1(C)CC(CCNCc2ccccc2O)(c2ccc(C)cc2)CCO1 (stereo not drawn) | 2 | 73% (active)
40 | CC(=O)c1ccc(NC(=O)CSc2nc(-c3ccccc3Cl)ns2)cc1 | -6 | 7% (inactive)
41 | O=C(Nc1ccc(Cl)cc1C(=O)Nc1ccncc1)c1ccc(Cl)cc1Cl | 4 | 39%
42 | CCOC(=O)c1c(C)n(-c2ccccc2)c2ccc(OC(=O)c3cc(OC)c(OC)c(OC)c3)cc12 | -6 | 11% (inactive)
43 | CCCCCCn1c(=N)n(CC(O)COc2cccc(C)c2)c2ccccc21 (stereo not drawn) | 57 | 111%
44 | Cc1cc(C)c2c(c1)OCN(Cc1ccccc1Cl)C2 | 30 | 88% (active)
45 | COc1ccc(C2c3ccc4ccccc4c3Oc3ncn(CCCN(C)C)c(=N)c32)cc1 (stereo not drawn) | 32 | 86% (active)
46 | CC1CCN(Cc2c(O)ccc3cc(-c4nc5ccccc5s4)c(=O)oc23)CC1 | -3 | 10% (inactive)
47 | CCOc1ccc(/C=C/c2nc(=O)c3ccccc3o2)cc1 | 1 | 19% (inactive)
48 | COc1cccc(NC(=O)Cn2c(C)c(C#N)c3ccccc32)c1 | 2 | -4% (inactive)
49 | COc1cc(C(=O)ON=C(N)Cc2cccc3ccccc23)cc(OC)c1OC | 26 | 89% (active)
50 | Cc1ccccc1OCCSc1nc2ccc(NC(=O)c3ccccc3)cc2s1 | -9 | 2% (inactive)

Row | SMILES | inhibition at 1.1 µM [1] [%] | inhibition at 11.1 µM [2]
51 | CN1C=C(c2ccc3ccccc3n2)C(c2c[nH]c3ccccc23)c2ccccc21 (stereo not drawn) | 8 | 89% (active)
52 | COc1ccc(C=C2SC(=N)N(c3ccccc3OC)C2=O)cc1 | 7 | 43%
53 | Cc1ccc(C2CC(C(F)(F)F)n3nc(C(=O)N4CCN(C(c5ccccc5)c5ccccc5)CC4)cc3N2)cc1 (stereo not drawn) | 5 | 8% (inactive)
54 | O=C(Nc1ccsc1C(=O)NC1CCCCC1)c1ccc(F)cc1 | -3 | 3% (inactive)
55 | CCc1ccc(CNCC(O)c2ccccc2)cc1 (stereo not drawn) | 32 | 67% (active)
56 | CCn1c2c(c(=N)c3c1CCC3)CCCC2 | 48 | 104% (active)
57 | O=C(Nc1ccc(N2CCN(Cc3ccccc3)CC2)cc1)c1cccs1 | 12 | 32%
58 | Cc1cc(N2CCCC2)nc(Nc2ccc(NC(=O)CCc3ccccc3)cc2)n1 | 9 | 116% (active)
59 | OC(Cn1nnc2ccccc21)Cn1c2ccc(Br)cc2c2cc(Br)ccc21 (stereo not drawn) | 21 | 17% (inactive)
60 | Cc1ccc(-c2nc3ccccc3o2)cc1NCc1cc(Cc2ccccc2)ccc1O | 11 | 10% (inactive)
61 | CCOC(=O)c1cnc2c(C)cccc2c1Nc1ccc(C(C)=O)cc1 | 6 | 39%
62 | c1ccc(/C2=N/c3ccccc3/N=C(/c3ccccc3)c3ccccc32)cc1 | 7 | 3% (inactive)
63 | COc1ccc(CNC2CCN(c3ccc(NC(=O)c4cccc(Cl)c4)cc3)CC2)cc1OC | 84 | 102%
64 | O=C1CC(O)(C(F)(F)C(F)(F)F)Oc2ccccc21 (stereo not drawn) | -9 | 3% (inactive)
65 | O=C1c2ccccc2C2=Nc3ccccc3SC(c3cccc(F)c3)C12 (stereo not drawn) | -4 | 4% (inactive)
66 | CCCCCC(=O)N1c2ccccc2N=C2CC(c3ccc(OC)c(OC)c3)CC(O)=C2C1c1ccc(C(F)(F)F)cc1 (stereo not drawn) | 9 | 23% (inactive)
67 | O=C(CCc1ccco1)NC1CCN(CC2(c3ccc(Cl)cc3)CCC2)CC1 | 10 | 65% (active)
68 | c1ccc(Cn2c(N=Nc3c(Nc4ccccc4)ccc4ccccc34)nc3ccccc32)cc1 | -2 | -2% (inactive)
69 | CCCCOc1ccc(C(=O)Nc2cc(C)on2)cc1 | -2 | 2% (inactive)
70 | CSc1ccccc1C(=O)Nc1nc(-c2ccccn2)cs1 | 15 | 39%
71 | CCc1ccc(Nc2cc(C)c3ccc(O)cc3n2)cc1 | 15 | 78% (active)
72 | Oc1ccc(-c2nc(-c3ccc4oc5ccc(-c6[nH]c(-c7ccc(O)cc7)nc6-c6ccccc6)cc5c4c3)c(-c3ccccc3)[nH]2)cc1 | 12 | 54% (active)
73 | Cn1c(=O)n(C)c2cc(CNCCNc3ccnc4cc(Cl)ccc34)ccc21 | 16 | 60% (active)
74 | COc1ccc2nc(C)cc(Nc3cccc(O)c3)c2c1 | 32 | 83% (active)
